Several values for one entry are separate records, joined by “and”; a condition that tells them apart may be missing. Equal entries are not always repeated. After the bases stand the sugars from the 5' end (letter, count) and the backbone: PS all phosphorothioate, else s phosphorothioate and o phosphodiester by linkage. Methylation of C is not given here. e = 2'-O-(2-methoxyethyl) (MOE); d = 2'-deoxy (DNA)
Molecular target: DGAT2
Conditions: ASO

Row | Sequence | target mRNA inhibition (HepG2, 2.5 µM) | target mRNA inhibition (HepG2, 10 µM) | target mRNA inhibition (HepG2, 0.12 µM) [%] | target mRNA inhibition (HepG2, 20 µM) [%]
1 | GTATCCTTAAAGCAGGGCCC (sugars e5 d10 e5, PS) | 84% and 81% | 85% and 89% |  | 
2 | CTTGCTCACTTCTGTGGCCT (sugars e5 d10 e5, PS) |  |  | 48 | 
3 | TAGAGCACTTGATCTGGGAC (sugars e5 d10 e5, PS) | 38% and 46% | 81% and 85% |  | 
4 | TCTTGTGCTTGTCGAAGAGC (sugars e5 d10 e5, PS) |  |  | 62 | 
5 | GTCCTAGTGCCCCAGGG (sugars e3 d10 e4, PS) | 76% and 86% | 93% and 95% |  | 
6 | TTATAATTTCTTTTAAATAA (sugars e5 d10 e5, PS) |  |  | 0 | 
7 | CACAATGGGAATGGTATCGC (sugars e5 d10 e5, PS) | 59% | 91% |  | 
8 | CTCAGAGACTCAGCCGCACC (sugars e5 d10 e5, PS) | 30% | 91% | 80 | 54
9 | CAGTTTCGGACCCACTGTGA (sugars e2 d13 e5, PS) |  |  | 77 | 
10 | CTGCAGGCCACTCCCAGTAC (sugars e5 d10 e5, PS) |  |  | 40 | 
11 | ATCCATGTCATCAGCCACCC (sugars e5 d10 e5, PS) | 61% and 63% | 86% and 80% |  | 
12 | CCAGCCCCCAGGTGTCGGAG (sugars e5 d10 e5, PS) |  |  | 50 | 
13 | CTGCACTCTCTCTGCACACT (sugars e5 d10 e5, PS) | 65% and 83% | 81% and 90% |  | 
14 | GGAAACTTTCCCACAGTCAG (sugars e5 d10 e5, PS) | 69% | 94% |  | 
15 | GTCCTGCAGTTTCAGGACTA (sugars e5 d10 e5, PS) |  |  | 54 | 
16 | CAAACAGATTAAAGTTGCTC (sugars e5 d10 e5, PS) | 78% and 72% | 90% and 91% |  | 
17 | CCAGGTGTCGGAGGAGAAGA (sugars e5 d10 e5, PS) |  |  | 53 | 
18 | ACCCAACCTTTAAGGCCTAT (sugars e5 d10 e5, PS) | 69% and 59% and 70% | 93% and 91% and 95% |  | 
19 | AGGTAAGGCCGTATGCCTGG (sugars e3 d14 e3, PS) |  |  | 67 | 
20 | AAGGACAGAGGTTCAACATC (sugars e5 d10 e5, PS) | 7% | 67% |  | 
21 | CAGGGTCCTCTCCGCTGCCT (sugars e5 d10 e5, PS) | 78% and 80% | 85% and 87% |  | 
22 | CGCGCAGGACCCCGGAGTAG (sugars e3 d14 e3, PS) |  |  | 69 | 

Row | Sequence | target mRNA inhibition (HepG2, 2.5 µM) | target mRNA inhibition (HepG2, 10 µM) | target mRNA inhibition (HepG2, 0.12 µM) [%] | target mRNA inhibition (HepG2, 20 µM) [%]
23 | ACCACAGCGATAATCACACA (sugars e5 d10 e5, PS) | 54% | 89% |  | 
24 | ATGCCAATGCCTAGGTCACA (sugars e5 d10 e5, PS) | 78% | 91% |  | 
25 | GTGATGACTTCCCAGGG (sugars e3 d10 e4, PS) | 66% and 82% | 67% and 84% |  | 
26 | GGGTTATTGCAACCACTAGG (sugars e5 d10 e5, PS) | 74% | 80% |  | 
27 | GAAGGCACCCAGGCCCATGA (sugars e5 d10 e5, PS) |  |  | 38 | 
28 | TCCCCTTGGCAGAGAAACTG (sugars e5 d10 e5, PS) |  |  | 47 | 
29 | TTTTAAATAACCCACAGACA (sugars e5 d10 e5, PS) | 92% | 60% | 10 | 81
30 | GGAAAGGCACAGGCTTTGGG (sugars e5 d10 e5, PS) | 57% and 66% | 92% and 97% |  | 
31 | GTGCAGCCTACAAGAGCCTG (sugars e5 d10 e5, PS) | 67% | 86% |  | 
32 | CACTAATTCTGGGCTTCCAG (sugars e5 d10 e5, PS) | 64% | 96% |  | 
33 | AAAACAGGGTACAACTCTCT (sugars e5 d10 e5, PS) | 73% and 59% | 91% and 87% |  | 
34 | TGATAGCATTGCCACTCCCA (sugars e2 d13 e5, PS) |  |  | 69 | 
35 | CCACTGTGACCTCCTGCCAC (sugars e5 d10 e5, PS) |  |  | 30 | 
36 | TGCAGCTAATGATACAAGGT (sugars e5 d10 e5, PS) | 67% | 89% |  | 
37 | GTTTGCTCAGTTCTTCCAAC (sugars e5 d10 e5, PS) | 83% and 78% | 94% and 90% |  | 
38 | ATTCATCTTTCCAGATCCGG (sugars e5 d10 e5, PS) | 92% | 88% |  | 
39 | AGACATCAGGTACTCCCTCA (sugars e5 d10 e5, PS) |  |  | 35 | 
40 | CAGCACTAATTTTTACAACT (sugars e5 d10 e5, PS) | 86% | 95% |  | 
41 | GACTTGCCCAGCAACCCATC (sugars e5 d10 e5, PS) | 77% | 54% |  | 
42 | GGTGATGGGCTTGGAGTAGG (sugars e5 d10 e5, PS) |  |  | 36 | 
43 | ATCCAGAGACTGAATTCTAG (sugars e5 d10 e5, PS) | 61% | 88% |  | 
44 | TCTCATTCATCTGGGCCCTG (sugars e5 d10 e5, PS) | 65% | 78% |  | 

Row | Sequence | target mRNA inhibition (HepG2, 2.5 µM) | target mRNA inhibition (HepG2, 10 µM) | target mRNA inhibition (HepG2, 0.12 µM) [%] | target mRNA inhibition (HepG2, 20 µM) [%]
45 | GCTTTAATCCAGGATTGTCA (sugars e5 d10 e5, PS) | 73% and 76% and 82% | 91% and 88% and 93% |  | 
46 | GCTAGAGGCTGAGTTCTGCT (sugars e5 d10 e5, PS) | 85% and 87% | 90% and 92% |  | 
47 | GTGGGAAAGGCACAGGCTTT (sugars e5 d10 e5, PS) |  |  | 53 | 
48 | ACCATAATCTGCACAGGTTC (sugars e5 d10 e5, PS) | 62% | 84% |  | 
49 | GGACAGCTGTGATGACTTCC (sugars e5 d10 e5, PS) | 55% | 76% |  | 
50 | AAGTGACAAAGTCTATCAGG (sugars e5 d10 e5, PS) | 61% | 87% |  | 
51 | ACCAGGGCCTCCATGTACAT (sugars e2 d13 e5, PS) |  |  | 50 | 
52 | CTGAATCAAAATCTGCATTT (sugars e5 d10 e5, PS) |  |  | 28 | 
53 | CCAGGTAAGGCCGTATGCCT (sugars e3 d14 e3, PS) |  |  | 71 | 
54 | GAGAAGAGGTCCTGGAGGGC (sugars e5 d10 e5, PS) |  |  | 10 | 
55 | ATCCTGGAGGCCAGTCCAGG (sugars e5 d10 e5, PS) |  |  | 18 | 
56 | CAGGCATGGAGCTCAGAGAC (sugars e5 d10 e5, PS) |  |  | 57 | 
57 | GCCAGGTAAGGCCGTATGCC (sugars e2 d13 e5, PS) |  |  | 66 | 
58 | GCAGCCTGGACAAGTCCTGC (sugars e3 d14 e3, PS) | 48% and 59% | 73% | 83 | 81
59 | TGTTGCCATCATACTAGACT (sugars e5 d10 e5, PS) | 64% | 75% |  | 
60 | GCGCAGGACCCCGGAGTAGG (sugars e3 d14 e3, PS) |  |  | 71 | 
61 | AGTGCTTTCTAAGTACCCTT (sugars e5 d10 e5, PS) | 91% and 88% | 90% and 94% |  | 
62 | GCGGCAGAGCCAGGACTGAA (sugars e5 d10 e5, PS) |  |  | 35 | 
63 | CCAATGCCTAGGTCACA (sugars e3 d10 e4, PS) | 61% | 83% |  | 
64 | TGTGACCTTGGGATAGTCCC (sugars e5 d10 e5, PS) | 63% | 87% |  | 
65 | CGCAGGACCCCGGAGTAGGC (sugars e2 d13 e5, PS) |  |  | 71 | 
66 | TTTCTTTTAAATAACCCACA (sugars e5 d10 e5, PS) |  |  | 1 | 

Row | Sequence | target mRNA inhibition (HepG2, 2.5 µM) | target mRNA inhibition (HepG2, 10 µM) | target mRNA inhibition (HepG2, 0.12 µM) [%] | target mRNA inhibition (HepG2, 20 µM) [%]
67 | GGCAGATAACCACAGCGATA (sugars e5 d10 e5, PS) | 75% | 84% |  | 
68 | CAGGACCCACTGGAGCACTG (sugars e3 d14 e3, PS) |  |  | 71 | 
69 | GTGATTATTCTAAAACTCAA (sugars e5 d10 e5, PS) | 34% | 71% |  | 
70 | TCTGATCAATTATTAACCTA (sugars e5 d10 e5, PS) | 20% | 55% |  | 
71 | GGATGGTGATGGGCTCTCCC (sugars e5 d10 e5, PS) |  |  | 67 | 
72 | GACAGGACCCACTGGAGCAC (sugars e3 d14 e3, PS) |  |  | 58 | 
73 | ATCACTTGCTTGAGGTCAGG (sugars e5 d10 e5, PS) | 70% | 90% |  | 
74 | CTGACACACAATATCCATGG (sugars e5 d10 e5, PS) | 76% and 57% | 93% and 85% |  | 
75 | GAAAACTTAGGCATGCTTCC (sugars e5 d10 e5, PS) | 59% | 92% |  | 
76 | ACCATTTTCACAAGGAGAAG (sugars e5 d10 e5, PS) |  |  | 30 | 
77 | AAGCCTCGGTGTCCTCT (sugars e3 d10 e4, PS) | 56% and 70% | 87% and 90% |  | 
78 | GTCATACTTACTGTTCAGCA (sugars e5 d10 e5, PS) | 78% and 65% | 94% and 91% |  | 
79 | CACAGTCATCTTGTGTACAT (sugars e5 d10 e5, PS) | 74% and 76% | 92% and 93% |  | 
80 | TAATCTGCTGCTCAGAAGGC (sugars e5 d10 e5, PS) |  |  | 36 | 
81 | GACAGGACCCACTGGAGCAC (sugars e2 d13 e5, PS) |  |  | 73 | 
82 | GCAATGCCAATGCCTAG (sugars e3 d10 e4, PS) | 69% and 80% | 78% and 87% |  | 
83 | GTTCCTGGTGGTCAGCAGGT (sugars e5 d10 e5, PS) |  |  | 63 | 
84 | GCTATTCATTTTTCTGAGCC (sugars e5 d10 e5, PS) |  |  | 47 | 
85 | ACAGGACCCACTGGAGCACT (sugars e2 d13 e5, PS) |  |  | 68 | 
86 | ACTCAAAAATATACATGCTC (sugars e5 d10 e5, PS) | 67% | 92% |  | 
87 | AGGTAAGGCCGTATGCCTGG (sugars e5 d10 e5, PS) |  |  | 72 | 
88 | GGCTCCGGTCAGCCTCGGCC (sugars e5 d10 e5, PS) |  |  | 0 | 

Reference: the OligoGym collection
